In brackets after ≈: the same amount, converted by molar mass. One block for each compound: values may come before it.
How the values were obtained:
Assay in all cases: ≥ marks a high value that may be exact or a test limit, other limits are often not marked, values filed in µg/mL are converted to µM
Klebsiella pneumoniae M6 = system: Klebsiella pneumoniae M6
[1] = system: Escherichia coli NCTC 12923
[2] = system: Acinetobacter baumannii NCTC 13424
[3] = system: Enterococcus faecalis NCTC 12204
[4] = system: Staphylococcus aureus NCTC 9144
[5] = system: Acinetobacter baylyi ADP1
[6] = system: Pseudomonas syringae pv. tomato
[7] = system: Pseudomonas aeruginosa PAO1
[8] = system: Escherichia coli CFI_160_KPC2
Escherichia coli 319238 = system: Escherichia coli 319238
Acinetobacter baumannii = system: Acinetobacter baumannii
[9] = system: Enterococcus faecalis NCTC 775
[10] = system: Acinetobacter baumannii AYE
[11] = system: Pseudomonas aeruginosa NCTC 13437
[12] = system: Acinetobacter baumannii NCTC 13302
Escherichia coli LEC 001 = system: Escherichia coli LEC 001
[13] = system: Escherichia coli CFI_161_NDM
[14] = system: Acinetobacter baumannii ATCC 17987
[15] = system: Klebsiella pneumoniae NCTC 13368
[16] = system: Xanthomonas axonopodis pv. phaseoli
Staphylococcus aureus 15 = system: Staphylococcus aureus 15
[17] = system: Enterococcus faecalis NCTC 12201
[18] = system: Escherichia coli ATCC 25922
Kluyveromyces marxianus = system: Kluyveromyces marxianus
Trichoderma harzianum = system: Trichoderma harzianum
[19] = system: Staphylococcus aureus ATCC 6538P
Pachysolen tannophilus = system: Pachysolen tannophilus
Candida albicans = system: Candida albicans
Micrococcus luteus = system: Micrococcus luteus
Aspergillus niger = system: Aspergillus niger
Staphylococcus aureus MR = system: Staphylococcus aureus MR
[20] = system: Pseudomonas aeruginosa ATCC 27853
[21] = system: Staphylococcus aureus ATCC 49476
Vibrio anguillarum = system: Vibrio anguillarum
[22] = system: Pseudomonas aeruginosa K799
Aeromonas salmonicida = system: Aeromonas salmonicida
[23] = system: Pseudomonas aeruginosa Z61
[24] = system: Staphylococcus epidermidis C621
[25] = system: Salmonella enterica serovar typhimurium MS7953s
[26] = system: Salmonella enterica subsp. enterica serovar Typhimurium ATCC 14028s
[27] = system: Candida albicans ATCC 10231
[28] = system: Staphylococcus aureus ATCC 29231
[29] = system: Klebsiella aerogenes ATCC 13048
[30] = system: Pseudomonas aeruginosa PA14
[31] = system: Enterococcus faecium E007

- MIC (Klebsiella pneumoniae M6): 21 µM (≈ 64 µg/mL)
- MIC [1]: 0.656 µM (≈ 2 µg/mL)
- MIC [2]: 5.24 µM (≈ 16 µg/mL)
- MIC [3]: 21 µM (≈ 64 µg/mL)
- MIC [4]: 10.5 µM (≈ 32 µg/mL)
- MIC [5]: 1.31 µM (≈ 4 µg/mL)
- MIC [6]: 0.328 µM (≈ 1 µg/mL)
- MIC [7]: 42 µM (≈ 128 µg/mL)
- MIC [8]: 2.62 µM (≈ 8 µg/mL)
- MIC (Escherichia coli 319238): 5.24 µM (≈ 16 µg/mL)
- MIC (Acinetobacter baumannii): 0.656 µM (≈ 2 µg/mL)
- MIC [9]: ≥ 42 µM
- MIC [10]: 0.656 µM (≈ 2 µg/mL)
- MIC [11]: ≥ 42 µM
- MIC [12]: 0.656 µM (≈ 2 µg/mL)
- MIC (Escherichia coli LEC 001): 5.24 µM (≈ 16 µg/mL)
- MIC [13]: 1.31 µM (≈ 4 µg/mL)
- MIC [14]: 2.62 µM (≈ 8 µg/mL)
- MIC [15]: ≥ 42 µM
- MIC [16]: 0.164 µM (≈ 0.5 µg/mL)
- MIC (Staphylococcus aureus 15): ≥ 42 µM
- MIC [17]: ≥ 42 µM
Compound: CC[C@H](C)[C@H](NC(=O)[C@H](CCCCN)NC(=O)[C@H](CCC(=O)O)NC(=O)[C@H](CCCCN)NC(=O)CNC(=O)[C@H](C)N)C(=O)N[C@@H](CCCN=C(N)N)C(=O)N[C@@H](CCCCN)C(=O)N[C@@H](CCCCN)C(=O)N[C@@H](CC(C)C)C(=O)N[C@@H](CCCCN)C(=O)N[C@@H](CC(N)=O)C(=O)N[C@@H](CCC(=O)O)C(=O)N[C@H](C(=O)N[C@@H](CCCCN)C(=O)N[C@@H](CCCCN)C(=O)N[C@@H](CCCCN)C(=O)N[C@@H](Cc1c[nH]c2ccccc12)C(=O)N[C@@H](CCCN=C(N)N)C(=O)N[C@@H](CCCCN)C(=O)N[C@@H](C)C(=O)N[C@H](C(=O)N[C@H](C(=O)N[C@@H](C)C(=O)N[C@@H](Cc1c[nH]c2ccccc12)C(=O)O)[C@@H](C)CC)C(C)C)[C@@H](C)CC [AGKEKIRKKLKNEIKKKWRKAVIAW]

- MIC [18]: 1 µM (≈ 4.94 µg/mL)
- MIC (Kluyveromyces marxianus): 2.9 µM (≈ 14.3 µg/mL)
- MIC (Trichoderma harzianum): 2.9 µM (≈ 14.3 µg/mL)
- MIC [19]: 8 µM (≈ 39.5 µg/mL)
- MIC (Pachysolen tannophilus): 2.9 µM (≈ 14.3 µg/mL)
- MIC (Candida albicans): 2.9 µM (≈ 14.3 µg/mL)
- MIC (Micrococcus luteus): 1.9 µM (≈ 9.39 µg/mL)
- MIC (Aspergillus niger): 2.9 µM (≈ 14.3 µg/mL)
Compound: CC[C@H](C)[C@H](NC(=O)[C@H](CC(C)C)NC(=O)[C@H](CCCCN)NC(=O)[C@@H](N)CC(=O)O)C(=O)NCC(=O)N[C@@H](CO)C(=O)N[C@H]1CSSC[C@@H]2NC(=O)[C@H](Cc3cnc[nH]3)NC(=O)CNC(=O)CNC(=O)[C@H](CCCCN)NC(=O)[C@H](Cc3ccc(O)cc3)NC(=O)CNC(=O)[C@H](CCCN=C(N)N)NC(=O)[C@H](CCCN=C(N)N)NC(=O)[C@H](CCCCN)NC(=O)[C@@H]3CSSC[C@@H](C(=O)N[C@@H](CCC(=O)O)C(=O)N[C@@H](CCC(=O)O)C(=O)O)NC(=O)[C@H](Cc4c[nH]c5ccccc45)NC(=O)[C@H](CSSC[C@H](NC(=O)[C@H](CC(=O)O)NC(=O)[C@H](CO)NC(=O)[C@H]([C@@H](C)O)NC(=O)[C@H](Cc4ccc(O)cc4)NC(=O)[C@H](CC(N)=O)NC(=O)[C@H]([C@@H](C)O)NC(=O)[C@H](C)NC(=O)CNC(=O)[C@H](Cc4c[nH]c5ccccc45)NC(=O)[C@H](C(C)C)NC1=O)C(=O)N[C@@H](CC(N)=O)C(=O)N[C@@H](C)C(=O)N[C@@H](CCC(=O)O)C(=O)N3)NC(=O)[C@H](CC(N)=O)NC(=O)[C@H](C(C)C)NC(=O)[C@H](CC(N)=O)NC(=O)[C@H](Cc1c[nH]c3ccccc13)NC(=O)[C@H](Cc1ccccc1)NC(=O)[C@H](CO)NC(=O)CNC2=O [DKLIGSCVWGATNYTSDCNAECKRRGYKGGHCGSFWNVNCWCEE]

- MIC (Staphylococcus aureus MR): ≥ 109 µM
- MIC (Candida albicans): 54.3 µM (≈ 128 µg/mL)
- MIC [20]: > 217 µM
- MIC [21]: 27.2 µM (≈ 64 µg/mL)
Compound: CC[C@H](C)[C@H](NC(=O)[C@H](C)NC(=O)[C@H](CCCCN)NC(=O)CNC(=O)[C@H](C)NC(=O)[C@H](CO)NC(=O)[C@H](Cc1ccccc1)NC(=O)[C@H](CC(C)C)NC(=O)CNC(=O)CNC(=O)[C@@H](NC(=O)[C@@H](NC(=O)[C@H](Cc1cnc[nH]1)NC(=O)[C@H](Cc1cnc[nH]1)NC(=O)[C@@H](NC(=O)[C@@H](N)Cc1ccccc1)[C@@H](C)CC)[C@@H](C)CC)[C@@H](C)CC)C(=O)N[C@@H](Cc1cnc[nH]1)C(=O)N[C@@H](CCCN=C(N)N)C(=O)N[C@@H](CC(C)C)C(=O)N[C@H](C(=O)N[C@@H](CCCN=C(N)N)C(=O)O)[C@@H](C)CC [FIHHIIGGLFSAGKAIHRLIR]

- MIC (Vibrio anguillarum): 0.704 µM (≈ 2 µg/mL)
- MIC [22]: 0.704 µM (≈ 2 µg/mL)
- MIC (Aeromonas salmonicida): 0.352 µM (≈ 1 µg/mL)
- MIC [23]: 0.704 µM (≈ 2 µg/mL)
- MIC [24]: 0.704 µM (≈ 2 µg/mL)
- MIC [25]: 0.176 µM (≈ 0.5 µg/mL)
- MIC [26]: 0.704 µM (≈ 2 µg/mL)
Compound: CC(C)C[C@H](NC(=O)[C@H](Cc1ccc(O)cc1)NC(=O)[C@H](Cc1cnc[nH]1)NC(=O)[C@@H](NC(=O)[C@H](CC(C)C)NC(=O)[C@H](C)NC(=O)[C@H](C)NC(=O)[C@H](CCCCN)NC(=O)CNC(=O)[C@@H](NC(=O)[C@H](Cc1cnc[nH]1)NC(=O)[C@H](CCCCN)NC(=O)CNC(=O)[C@@H](NC(=O)[C@H](Cc1cnc[nH]1)NC(=O)[C@H](C)NC(=O)[C@H](C)NC(=O)[C@H](CCCCN)NC(=O)[C@H](CCCCN)NC(=O)[C@H](Cc1ccccc1)NC(=O)[C@H](Cc1ccccc1)NC(=O)[C@H](CO)NC(=O)CNC(=O)[C@H](Cc1c[nH]c2ccccc12)NC(=O)CNC(=O)[C@@H](N)CCCCN)C(C)C)C(C)C)[C@@H](C)O)C(N)=O [KGWGSFFKKAAHVGKHVGKAALTHYL]

- MIC [27]: 14.2 µM (≈ 32 µg/mL)
- MIC [28]: 7.09 µM (≈ 16 µg/mL)
- MIC [29]: 28.4 µM (≈ 64 µg/mL)
- MIC [30]: 14.2 µM (≈ 32 µg/mL)
- MIC [31]: ≥ 56.7 µM
Compound: CC[C@H](C)[C@H](NC(=O)[C@H](CCCCN)NC(=O)[C@H](CCCCN)NC(=O)[C@H](Cc1c[nH]c2ccccc12)NC(=O)[C@@H](NC(=O)[C@H](CCCCN)NC(=O)[C@H](Cc1c[nH]c2ccccc12)NC(=O)[C@@H](N)CC(C)C)[C@@H](C)CC)C(=O)N[C@@H](Cc1c[nH]c2ccccc12)C(=O)N[C@@H](CCCN=C(N)N)C(=O)N[C@H](C(=O)NCC(=O)N[C@@H](Cc1c[nH]c2ccccc12)C(=O)N[C@@H](CC(N)=O)C(=O)N[C@@H](Cc1c[nH]c2ccccc12)C(=O)N[C@@H](CCCN=C(N)N)C(=O)O)C(C)C [LWKIWKKIWRVGWNWR]

— DBAASP
